From ChEMBL document CHEMBL2073850, “Human organic anion transporters and human organic cation transporters mediate renal transport of prostaglandins” (J Pharmacol Exp Ther, 2002)

Key:
Type in all cases: functional, cell-based
Parameters in all cases: scale not given: the % may be the effect or the level left
[1] = target: T1, OCT2 (Solute carrier family 22 member 2) (Homo sapiens, UniProt O15244); assay: TP_TRANSPORTER: inhibition of TEA uptake (TEA: 5 uM, PGE2: 1000 uM) in OCT2-expressing S2 cells; settings: mouse, probe TEA, read-out: Activity
T1 sequence (O15244 whole entry): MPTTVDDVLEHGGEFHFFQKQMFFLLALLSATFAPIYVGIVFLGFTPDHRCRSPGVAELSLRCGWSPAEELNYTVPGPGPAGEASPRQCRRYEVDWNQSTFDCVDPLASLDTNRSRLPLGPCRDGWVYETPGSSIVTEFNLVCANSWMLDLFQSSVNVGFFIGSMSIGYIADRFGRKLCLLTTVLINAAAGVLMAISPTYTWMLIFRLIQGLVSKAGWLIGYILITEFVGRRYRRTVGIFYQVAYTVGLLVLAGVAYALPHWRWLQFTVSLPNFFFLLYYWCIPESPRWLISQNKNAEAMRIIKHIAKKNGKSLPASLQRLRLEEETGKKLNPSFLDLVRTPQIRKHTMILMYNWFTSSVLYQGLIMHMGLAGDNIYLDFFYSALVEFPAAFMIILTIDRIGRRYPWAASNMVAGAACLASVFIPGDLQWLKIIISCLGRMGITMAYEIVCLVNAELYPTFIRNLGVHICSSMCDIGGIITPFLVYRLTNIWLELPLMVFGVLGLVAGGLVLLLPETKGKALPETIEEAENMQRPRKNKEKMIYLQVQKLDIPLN

[2] = target: T2, OAT2 (Solute carrier family 22 member 7) (Homo sapiens, UniProt Q9Y694); assay: TP_TRANSPORTER: inhibition of PGF2alpha uptake (PGF2alpha: 0.05 uM, PGE2: 30 uM) in OAT2-expressing S2 cells; settings: mouse, probe PGF2alpha, read-out: Activity
T2 sequence (Q9Y694 whole entry): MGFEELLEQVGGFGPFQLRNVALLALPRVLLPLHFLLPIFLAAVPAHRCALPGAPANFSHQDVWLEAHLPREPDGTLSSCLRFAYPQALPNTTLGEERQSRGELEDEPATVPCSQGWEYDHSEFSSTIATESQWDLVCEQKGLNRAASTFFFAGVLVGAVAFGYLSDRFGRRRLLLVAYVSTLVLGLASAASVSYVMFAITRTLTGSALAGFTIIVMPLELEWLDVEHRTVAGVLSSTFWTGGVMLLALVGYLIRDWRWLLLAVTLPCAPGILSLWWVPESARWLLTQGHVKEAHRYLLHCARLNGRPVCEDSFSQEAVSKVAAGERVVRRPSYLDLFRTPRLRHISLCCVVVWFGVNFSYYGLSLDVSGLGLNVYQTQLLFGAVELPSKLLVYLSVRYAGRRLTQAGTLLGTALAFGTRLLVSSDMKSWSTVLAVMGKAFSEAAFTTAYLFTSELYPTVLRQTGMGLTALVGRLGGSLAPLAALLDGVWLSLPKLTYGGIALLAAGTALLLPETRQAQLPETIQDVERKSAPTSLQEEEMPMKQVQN

[3] = target: T3, OAT4 (Solute carrier family 22 member 11) (Homo sapiens, UniProt Q9NSA0); assay: TP_TRANSPORTER: inhibition of ES uptake (ES: 0.05 uM, PGE2: 30 uM) in OAT4-expressing S2 cells; settings: probe ES, read-out: Activity
T3 sequence (Q9NSA0 whole entry): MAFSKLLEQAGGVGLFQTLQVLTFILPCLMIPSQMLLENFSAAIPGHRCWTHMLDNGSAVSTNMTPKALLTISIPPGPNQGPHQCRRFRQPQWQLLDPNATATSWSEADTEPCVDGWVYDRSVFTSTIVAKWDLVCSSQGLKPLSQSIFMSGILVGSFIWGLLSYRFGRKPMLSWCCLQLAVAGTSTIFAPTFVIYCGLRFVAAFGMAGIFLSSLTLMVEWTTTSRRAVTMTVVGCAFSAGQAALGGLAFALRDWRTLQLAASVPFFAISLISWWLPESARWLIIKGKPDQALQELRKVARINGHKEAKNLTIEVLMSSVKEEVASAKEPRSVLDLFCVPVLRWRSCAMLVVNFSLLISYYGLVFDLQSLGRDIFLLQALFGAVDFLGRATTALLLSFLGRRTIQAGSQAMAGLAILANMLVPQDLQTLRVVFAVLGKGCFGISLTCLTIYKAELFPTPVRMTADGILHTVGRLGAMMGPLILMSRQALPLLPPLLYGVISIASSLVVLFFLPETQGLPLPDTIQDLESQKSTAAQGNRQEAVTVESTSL

[4] = target: T4, OCT1 (Solute carrier family 22 member 1) (Homo sapiens, UniProt O15245); assay: TP_TRANSPORTER: inhibition of TEA uptake (TEA: 5 uM, PGE2: 1000 uM) in OCT1-expressing S2 cells; settings: probe TEA, read-out: Activity
T4 sequence (O15245 whole entry): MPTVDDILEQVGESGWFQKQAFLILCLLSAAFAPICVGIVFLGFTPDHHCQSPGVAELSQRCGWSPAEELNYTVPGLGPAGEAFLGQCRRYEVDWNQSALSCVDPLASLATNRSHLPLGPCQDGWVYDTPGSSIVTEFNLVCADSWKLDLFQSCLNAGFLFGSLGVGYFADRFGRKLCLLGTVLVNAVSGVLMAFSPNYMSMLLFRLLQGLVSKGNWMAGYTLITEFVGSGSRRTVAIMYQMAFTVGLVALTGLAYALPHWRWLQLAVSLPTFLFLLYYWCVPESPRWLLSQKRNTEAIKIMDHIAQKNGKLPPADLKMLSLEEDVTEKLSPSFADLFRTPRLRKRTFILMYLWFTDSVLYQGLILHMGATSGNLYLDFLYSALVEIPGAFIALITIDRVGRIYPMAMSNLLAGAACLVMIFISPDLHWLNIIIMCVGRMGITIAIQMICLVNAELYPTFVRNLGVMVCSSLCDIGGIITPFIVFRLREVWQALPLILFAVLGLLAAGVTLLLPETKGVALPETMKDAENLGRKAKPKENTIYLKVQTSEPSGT

[5] = target: T5, Organic anion transporter 3 (Homo sapiens, UniProt Q8TCC7); assay: TP_TRANSPORTER: inhibition of ES uptake (ES: 0.05 uM, PGE2: 30 uM) in OAT3-expressing S2 cells; settings: s2, 30 µM
T5 sequence (Q8TCC7 whole entry): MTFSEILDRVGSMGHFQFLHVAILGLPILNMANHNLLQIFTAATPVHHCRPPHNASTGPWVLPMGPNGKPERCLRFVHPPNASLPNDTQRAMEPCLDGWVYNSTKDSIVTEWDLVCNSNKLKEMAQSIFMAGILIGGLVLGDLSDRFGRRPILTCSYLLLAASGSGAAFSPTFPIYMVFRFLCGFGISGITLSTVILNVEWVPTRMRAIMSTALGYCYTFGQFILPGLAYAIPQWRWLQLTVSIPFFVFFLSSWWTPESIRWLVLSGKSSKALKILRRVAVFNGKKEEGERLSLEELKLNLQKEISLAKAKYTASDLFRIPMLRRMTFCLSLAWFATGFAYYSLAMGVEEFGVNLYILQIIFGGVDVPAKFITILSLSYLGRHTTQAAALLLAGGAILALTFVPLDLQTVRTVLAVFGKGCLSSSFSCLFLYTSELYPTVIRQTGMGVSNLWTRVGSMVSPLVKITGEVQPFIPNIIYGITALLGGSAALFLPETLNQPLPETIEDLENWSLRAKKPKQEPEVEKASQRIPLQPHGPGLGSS

[6] = target: T6, Solute carrier family 22 member 1 (Homo sapiens, UniProt O15245); assay: TP_TRANSPORTER: inhibition of TEA uptake (TEA: 5 uM, PGF2alpha: 1000 uM) in OCT1-expressing S2 cells; settings: mouse, s2, 1000 µM
T6 sequence (O15245 whole entry): T4 sequence (O15245 whole entry)

[7] = target: T7, OAT1 (Solute carrier family 22 member 6) (Homo sapiens, UniProt Q4U2R8); assay: TP_TRANSPORTER: inhibition of PAH uptake (PAH: 5 uM, PGF2alpha: 1000 uM) in OAT1-expressing S2 cells; settings: mouse, probe PAH, read-out: Activity
T7 sequence (Q4U2R8 whole entry): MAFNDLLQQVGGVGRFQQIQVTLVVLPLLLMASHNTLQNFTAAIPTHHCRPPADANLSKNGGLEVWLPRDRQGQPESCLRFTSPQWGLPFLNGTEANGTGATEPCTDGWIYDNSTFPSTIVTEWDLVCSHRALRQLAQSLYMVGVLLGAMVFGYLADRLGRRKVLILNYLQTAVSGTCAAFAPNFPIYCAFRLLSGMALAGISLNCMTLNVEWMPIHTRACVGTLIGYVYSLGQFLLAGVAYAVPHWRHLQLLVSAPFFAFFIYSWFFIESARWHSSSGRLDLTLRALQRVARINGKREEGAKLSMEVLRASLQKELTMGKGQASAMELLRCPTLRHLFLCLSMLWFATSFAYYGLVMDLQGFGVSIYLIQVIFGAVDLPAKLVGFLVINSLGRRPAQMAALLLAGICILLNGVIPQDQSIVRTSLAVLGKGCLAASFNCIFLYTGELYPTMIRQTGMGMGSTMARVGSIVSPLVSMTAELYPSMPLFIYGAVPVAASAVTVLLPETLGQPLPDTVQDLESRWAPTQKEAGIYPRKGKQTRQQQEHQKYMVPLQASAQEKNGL

[8] = target: T8, OAT3 (Organic anion transporter 3) (Homo sapiens, UniProt Q8TCC7); assay: TP_TRANSPORTER: inhibition of ES uptake (ES: 0.05 uM, PGF2alpha: 30 uM) in OAT3-expressing S2 cells; settings: probe ES, read-out: Activity
T8 sequence (Q8TCC7 whole entry): T5 sequence (Q8TCC7 whole entry)

[9] = target: T3, OAT4 (Solute carrier family 22 member 11); assay: TP_TRANSPORTER: inhibition of ES uptake (ES: 0.05 uM, PGF2alpha: 30 uM) in OAT4-expressing S2 cells; settings: mouse, probe ES, read-out: Activity
[10] = target: T1, OCT2 (Solute carrier family 22 member 2); assay: TP_TRANSPORTER: inhibition of TEA uptake (TEA: 5 uM, PGF2alpha: 1000 uM) in OCT2-expressing S2 cells; settings: mouse, probe TEA, read-out: Activity

Row | SMILES | activity at 1000 µM [1] [%] | activity at 30 µM [2] [%] | activity at 30 µM [3] [%] | activity at 1000 µM [4] [%] | Activity [5] [%] | Activity [6] [%] | activity at 1000 µM [7] [%] | activity at 30 µM [8] [%] | activity at 30 µM [9] [%] | activity at 1000 µM [10] [%]
1 | CCCCC[C@H](O)/C=C/[C@H]1[C@H](O)CC(=O)[C@@H]1C/C=C\CCCC(=O)O [DINOPROSTONE] | 75.6 | 21.2 | 57 | 31.4 | 21.8 |  |  |  |  | 
2 | CCCCC[C@H](O)/C=C/[C@@H]1[C@@H](C/C=C\CCCC(=O)O)[C@@H](O)C[C@H]1O [DINOPROST] |  |  |  |  |  | 68.9 | 17.7 | 26.8 | 40.8 | 70.7
